Assay results published in patent US20070010454A1, “Method for treating tumor cells resulting in minimal liver toxicity” (priority 2005, published 2007).

Key:
tyrosinase [1] = assay: Tyrosinase mediated GSH depletion assay; type: biochemical; conditions: for GSH depleted in tyrosinase/O2 metabolizing system, average equivalent: average over the four compounds named; for GSH depleted in tyrosinase/O2 metabolizing system (in words) / GSH depleted in tyrosinase/O2 metabolizing system: alkoxyphenol 100 µM, GSH 200 µM
Description: Tyrosinase (10 µL; 2500 U/mL) was added to a mixture of alkoxyphenol (100 µM) and GSH (200 µM) in a final volume of 1 mL phosphate buffer (0.1 M, pH 7.4, DETAPAC 1 mM). The mixture was pre-incubated for 30, 90, and 180 min at 37° C. A 250 µL aliquot was added to trichloroacetic acid (25 µL; 30% w/v), vortexed and left at room temperature for 5 min. A 100 µL aliquot of the supernatant was then added to a mixture of Ellman's reagent 5,5′-dithiobis-(2-nitrobenzoic acid) DTNB (25 µL; 2 mg/mL) and Tris/HCl buffer (875 µL; 0.1 M, pH 8.94), and then vortexed. […] The standard curve for GSH measurement gave a regression coefficient of greater than 0.99 over the range of 5-200 µM GSH concentrations (data not shown).

B16-F0 melanoma cells = assay: MTT cytotoxicity assay in B16-F0 melanoma cell line; type: cell-based, mouse
Description: The mouse B16-F0 cell line was obtained from American Type Culture Collection, USA. A frozen B16-F0 cell vial was washed twice with DMEM media before culturing in 8 mL DMEM supplemented with fetal calf serum (FCS) (10%) and streptomycin/penicillin (100 U/mL) in a T-25 flask (17). All the cell culture processes were carried out in a type II vertical laminar air flow chamber. The B16-F0 cultures were kept at 37° C. under a 5% CO2 atmosphere in a TS Autoflow CO2 Water-Jacketed Incubator (NUAIRE, USA). The culture medium was changed when acidification was indicated by the pH indicator and when needed. To detach the cells from the flask, the media was first removed from the flask. The remaining media was then washed out using sterile phosphate buffered saline (PBS) (2-3 mL). Subsequently, Versene (2-5 mL) was added to the flask and the sample was incubated for 2-3 min in the incubator to provide time for cells to detach. The detached cells were rinsed with ˜10 mL of pre-warmed sterile PBS to dilute Versene. The mixture was transferred into a 50 mL tube. The flask was additionally rinsed with sterile PBS and the content was added to the rest of the cells collected. The cells were then spun down at 800 RPM (Beckman GPR Centrifuge, USA) for 3-5 min. The PBS-Versene mixture was aspirated off. Pelletted cells were then re-suspended in DMEM media (supplemented by FCS 10% and antibiotics 100 U/mL) followed by splitting the mixture into one T-75 flask containing 30 mL media (25% of the media was supplemented from the previous culture step as conditioning media).
To evaluate cytotoxicity, cells were obtained from exponentially growing 90-95% confluent cultures and seeded at 12,500 cells/well in 96-well plates. The cells were kept in 100 µL fresh DMEM media (supplemented by FCS 10% and antibiotics 100 U/mL) for 24 h to allow cell adhesion and environmental adaptation. Subsequently, the cells were treated with additional 150 µL DMEM (supplemented with FCS 10% and antibiotics 100 U/mL) containing various concentrations of alkoxyphenols for 1-4 days. At 24 h interval, the medium was removed and the wells were washed three times using DMEM media alone before adding 40 µL of 2 mg/mL yellow tetrazolium dye (3-(4,5-dimethylthiazolyl-2)-2,5-diphenyltetrazolium bromide) (MTT) (17). The plates were returned to the incubator for a period of 4 h. […] The plates were stored at room temperature in a dark place for an additional 2 h before reading them at 570 nm using XFluor Plate Reader (Tecan US, Inc, USA). […]
Lethal concentrations (LC) which can cause 10% and 50% of the cell death were calculated from the linear regression equation derived from graphing the viability of the cells at day 2 (on x axis) versus the concentration of the drug (on y axis).

tyrosinase [2] = assay: UV-VIS spectroscopy of tyrosinase mediated metabolism of alkoxyphenols; type: biochemical; conditions: alkoxyphenol 100 µM, tyrosinase 20 U/mL; compared with the other alkoxyphenols
Description: UV-VIS spectroscopy of tyrosinase mediated metabolism of alkoxyphenols The spectra of a solution containing alkoxyphenol (100 µM) and tyrosinase (20 U/mL) were recorded in the absence and presence of GSH (200 µM) using a GBC UV-Visible spectral spectrophotometer (GC Scientific, Australia). The spectra of the mixture were obtained when GSH was added to the solution either before or after the addition of tyrosinase. The control spectrum was that of the respective alkoxyphenol solution (100 µM) in phosphate buffer [0.1 M (pH 7.4) containing DETAPAC (1 mM)].

melanoma = conditions: cited from earlier work
[3] = tested on: rat liver microsomal P450; assay: Microsomal mediated GSH depletion assay (rat liver microsomes/NADPH/O2); type: in vitro ADME
Description: Adult male Sprague-Dawley rats, 250-300 g, were obtained from Charles River Laboratories, USA, fed ad libitum, were allowed to acclimatize for 1 week on clay chip bedding in a room with a 12 h light photocycle, an environmental temperature of 21-23° C. and 50-60% relative humidity.
The rats were anesthetized by sodium pentobarbital (60 mg/kg) before surgery in order to prepare the animal before liver removal. Hepatic microsomes were prepared by differential centrifugation as described previously (14). Briefly, the liver was removed and weighed in a beaker on ice. The liver was cut into pieces and washed by cold KCl (154 mM): Tris/HCl (50 mM, pH 7.4) buffer solution then suspended into 4 volumes of KCl:Tris/HCl buffer. The tissue was gently homogenized using an electrical homogenizer and subsequently by a handheld glass tissue grinder before centrifuging at 1935 g (Beckman Avanti J-251, Beckman Rotor-JA-25.5) at 4° C. for 15 mm to remove tissue and cell debris. The supernatant was centrifuged at 12,100 g at 4° C. for 15 min to remove subcellular organelles followed by centrifigation at 100,000 g (Beckman Optima LE-80K, Beckman Rotor-45 Ti) at 4° C. for 1 h. The supernatant was discarded and micorsomes were separated and suspended in 5 mL Tris/HCl buffer (100 mM, pH 7.4) containing 1 mM DETAPAC. The mixture was homogenized using a handheld glass tissue grinder after which an additional 15 mL Tris HCl buffer was added and the solution was aliquoted in 750 µL and stored at −70° C. for subsequent use. Microsomal protein content was determined by a modified Lowry method (15).
The amount of GSH conjugates formed were determined colorimetrically using Ellman's reagent 5,5′-dithiobis-(2-nitrobenzoic acid) (DTNB) (13). Incubation mixtures contained in a final volume of 1 mL phosphate buffer (0.1 M, pH 7.4, DETAPAC 1 mM), 2 mg/mL rat liver microsomes, 200 µM GSH, 1 mM NADPH, and 100 µM alkoxyphenols. The mixtures were gently mixed at 37° C. from which 250 µL aliquots were taken at 30, 60, and 90 min time-interval points into Eppendorf tubes containing 25 µL trichloroacetic acid (30% w/v). Following protein precipitation and centrifugation for 5 min, the GSH levels of a 100 µL aliquot of the supernatant was determined by the addition of 0.1 M Tris/HCl buffer, pH 8.94 (875 µL), and 2 mg/mL DTNB (25 µL). The reduced DTNB formed was determined at 412 nm on a GBC spectral spectrophotometer.

isolated rat hepatocytes = conditions: reactive metabolite of 4-HA formed by liver P450s; cited from earlier work

SMILES: CC(C)Oc1ccccc1O [2-iPP, 2-iso-propoxyphenol]
- GSH depleted in tyrosinase/O2 metabolizing system, average equivalent (tyrosinase [1]; 90 min incubation): 0.15 molar per mole
- fold less toxic than the toxic value calculated from Eq. 2 (QSTR) (B16-F0 melanoma cells; LC50 day 2, B16-F0): 3.6 fold
- fold lower rate of oxidation by tyrosinase/O2 metabolizing system (tyrosinase [2]): 20 fold

SMILES: CCCOc1ccc(O)cc1 [4-nPP]
- GSH depleted in tyrosinase/O2 metabolizing system (in words) (tyrosinase [1]; 90 min incubation): mole per mole basis

SMILES: CCC(C)Oc1ccc(O)cc1 (stereo not shown) [4-sBP]
- GSH depleted in tyrosinase/O2 metabolizing system, average equivalent (tyrosinase [1]; 90 min incubation): 0.15 molar per mole

SMILES: COc1ccc(O)cc1 [4-HA, 4-hydroxyanisole, reference compound]
- clinical liver toxicity (in words) (melanoma; clinical trials terminated): serious liver damage occurred
- clinical effect (in words) (melanoma; topical application and intra-arterial infusions into patients' legs): Depigmentation and tumor shrinkage
- GSH depleted in tyrosinase/O2 metabolizing system (tyrosinase [1]; 30 min incubation): 1.8 molecular equivalent of GSH per mole
- fold more toxic than the toxic value calculated from Eq. 2 (QSTR) (B16-F0 melanoma cells; LC50 day 2, B16-F0): 1.7 fold

SMILES: CCOc1ccc(O)cc1 [4-EP]
- GSH depleted in tyrosinase/O2 metabolizing system (in words) (tyrosinase [1]; 90 min incubation): mole per mole basis

SMILES: CCCCOc1ccc(O)cc1 [4-nBP]
- GSH depleted in tyrosinase/O2 metabolizing system (tyrosinase [1]; 90 min incubation): 1.8 molecular equivalent of GSH per mole

SMILES: CC(C)(C)Oc1ccc(O)cc1 [4-tBP, 4-t-butoxyphenol]
- GSH depleted in tyrosinase/O2 metabolizing system, average equivalent (tyrosinase [1]; 90 min incubation): 0.15 molar per mole
- fold less toxic than the toxic value calculated from Eq. 2 (QSTR) (B16-F0 melanoma cells; LC50 day 2, B16-F0): 3.6 fold
- fold lower rate of oxidation by tyrosinase/O2 metabolizing system (tyrosinase [2]): 20 fold
- GSH depletion by microsomal P450/NADPH/O2, fold less than 4-HA ([3]; 100 µM concentration): 2.3 fold
- glutathione depletion by microsomal P450 system (in words) ([3]; 100 µM concentration): lowest rate of GSH depletion
- glutathione depletion by microsomal P450 system (in words) ([3]; 100 µM concentration, listed as 4-t-butoxyphenol): lowest amount of glutathione depletion
- GSH depleted by rat liver microsomes/NADPH/O2 ([3]; 90 min incubation, alkoxyphenol 100 µM, 2 mg/mL microsomes, 200 µM GSH): 0.5 equivalents of GSH per mole

SMILES: CC(C)Oc1ccc(O)cc1 [4-iPP]
- GSH depleted in tyrosinase/O2 metabolizing system, average equivalent (tyrosinase [1]; 90 min incubation): 0.15 molar per mole

SMILES: O=C1C=CC(=O)C=C1 [p-quinone]
- toxicity to isolated rat hepatocytes (in words) (isolated rat hepatocytes): highly toxic

SMILES: CC(C)COc1ccc(O)cc1 [4-iBP]
- GSH depleted in tyrosinase/O2 metabolizing system (tyrosinase [1]; 90 min incubation): 1.8 molecular equivalent of GSH per mole

SMILES: CCCCCCOc1ccc(O)cc1 [4-nHP, 4-n-hexyloxyphenol]
- GSH depleted in tyrosinase/O2 metabolizing system (tyrosinase [1]; 90 min incubation): 1.8 molecular equivalent of GSH per mole
- toxicity towards B16-F0 cells (in words) (B16-F0 melanoma cells; MTT assay, 1-4 days): greatest toxicity
- metabolism by liver P450 microsomal preparation (in words) [3]: minimal metabolism
- glutathione depletion in microsomal preparations (in words) ([3]; at calculated LC10 and LC50 lethal concentrations for B16-F0): minimally depleting glutathione
